Article PMC12509006, “Synthesis and Evaluation of Pyridine-Based Antibacterial Agents that Inhibit ATP Synthase in Acinetobacter baumannii” (ACS Omega, 2025)
Values after ≈ are worked out from the molar mass of the structure shown. Like-named read-outs stand apart in the source and are kept apart here.

Key:
HEK 293 cells = assay: XTT cell viability cytotoxicity assay; settings: n = 3, 24 h treatment
MDR AB BAA 1605 = assay: Broth microdilution antimicrobial susceptibility assay, MDR isolate; settings: Acinetobacter baumannii, BAA1605, read-out: MIC, MDR AB BAA 1605
AB ATCC 17978 = assay: Broth microdilution antimicrobial susceptibility assay, susceptible isolate; settings: Acinetobacter baumannii, ATCC17978, read-out: MIC, AB ATCC 17978
[1] = target: T1, A. baumannii ATP synthase (Acinetobacter baumannii, UniProt A3M139); assay: AB ATP synthase inhibition: NADH-driven ATP synthesis in inverted inner membrane vesicles, luciferin/luciferase readout; assay type: biochemical; settings: for Hill coefficient (Hill slope): fit of ATP synthesis dose response curve
T1 construct: endogenous electron transport chains of inverted inner membrane vesicles were energized with NADH; endogenous in cells; host or cells: inverted inner membrane vesicles prepared from A. baumannii ATCC 17978 cells
Description: Once synthesized, the pyridine compounds were tested for their ability to inhibit ATP synthase activity using our previously reported luciferin/luciferase assay. Briefly, endogenous electron transport chains of inverted inner membrane vesicles were energized with NADH to generate a proton gradient and to drive ATP synthesis. ATP was measured via luminescence from the luciferase-catalyzed oxidation of D-luciferin. Luminescence activities across increasing inhibitor concentrations were corrected for gradient independent background sources of ATP by comparison with a control containing the protonophore CCCP (carbonyl cyanide 3-chlorophenylhydrazone). The data were then fit to a four-parameter logistic dose–response curve, from which IC50 values and Hill coefficients were determined using a nonlinear least-squares regression.
A. baumannii (ATCC 17978) cells were grown in LB medium at 37 °C with shaking at 150 rpm and harvested by centrifugation in the late exponential phase of growth. Cells were resuspended in TMG buffer (50 mM Tris-HCl, pH 7.5, 5 mM MgCl2, 10% v/v glycerol) with 1 mM phenylmethanesulfonyl fluoride, 1 mM dithiothreitol, and a small amount of DNase and lysed by two passes through an Avestin B15 homogenizer at 19,000 psi. Lysate was cleared by centrifugation at 9000g and inverted membrane vesicles were collected from the supernatant by centrifugation at 169,000g. To reduce background ATP synthesis activity in AB vesicles, it was important to wash the membranes by resuspending in TMG buffer and centrifuging again at 169,000g. Washed pellets were resuspended in TMG buffer, and aliquots were stored at −80 °C. Once thawed, aliquots were not refrozen. Protein concentration in membrane vesicles was determined using a modified Lowry assay.
In vitro ATP synthesis activity of inverted inner membrane vesicles was measured as previously described. A reaction solution was prepared containing 5 mM tricine-KOH, pH 8.0, 50 mM KCl, 2.5 mM MgCl2, 0.1 mM adenosine diphosphate, 3.75 mM potassium phosphate, and 2.5 mM NADH and distributed into a 96-well plate. NADH-driven ATP synthesis was initiated by addition of inverted vesicles to 50 μg/mL and allowed to proceed for 10 min. The reaction was stopped by transferring an aliquot into 1% trichloroacetic acid. The stopped reaction was diluted 100-fold with deionized water and a sample was transferred to luciferase solution containing 25 mM tricine-NaOH, pH 7.8, 5 mM MgSO4, 0.1 mM EDTA, 0.1 mM NaN3, 150 μg/mL luciferin, and 7.5 μg/mL luciferase. Luminescence was measured in an opaque white 96-well plate using a BioTek H1 multimode plate reader. Each replicate set included a positive control containing DMSO with no compound and a negative control containing carbonyl cyanide 3-chlorophenylhydrazone (CCCP). Luminescence values were corrected for background by subtracting the CCCP control and normalized to the luminescence of the DMSO control. Normalized activity was fit using a variable-slope dose response curve. Nonlinear regression, including prediction of 95% confidence bands, and pairwise comparisons of fits using the F-test method were completed using GraphPad Prism10. Relativeactivity=1/1+(c/IC50)^Hillslope […]
Figure S1. ATP synthesis inhibition by all pyridine compounds in order of WSA compound number. ATP synthesis activities in inverted inner membrane vesicles prepared from AB cells were measured in the presence of 0.0625-64 µg/mL, corrected for background ATP, and normalized to activity with DMSO alone (see methods). For each plot, dots are normalized activities at each concentration (n≥3) on a log 2 scale, solid lines are fitted dose response curves, and dashed lines show the 95% confidence range of the fit. IC50

[2] = inverted inner membrane vesicles, 0.0625-64 µg/mL, n≥3, Table S1, read-out: AB ATP Synthase Inhibition IC50 (converted)

T1 sequence (A3M139 whole entry): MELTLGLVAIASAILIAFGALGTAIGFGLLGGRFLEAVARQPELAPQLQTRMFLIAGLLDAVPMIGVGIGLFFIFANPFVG

Compound | MIC, HEK 293 (cytotoxicity) (HEK 293 cells) [µg/mL] | MIC (MDR AB BAA 1605) [µg/mL] | MIC (AB ATCC 17978) [µg/mL] | Hill coefficient (Hill slope) [1] | IC50 [1, 2] [nM] | IC50 ([1]; Figure 2, read-out: IC50, AB ATP synthase inhibition (converted)) [nM]
COc1nc2ccc(Br)cc2cc1[C@@H](c1ccccc1)[C@@](O)(CCN(C)C)c1cccc2ccccc12 [Bedaquiline, bedaquiline, reference compound] | > 32 | – | – | – | – | –
CNC(C)C1CCC(N)C(OC2C(N)CC(N)C(OC3OCC(C)(O)C(NC)C3O)C2O)O1 (centres unmarked) [Gentamicin, reference compound] | – | > 16 | 8 (≈ 16.8 µM) | – | – | –
CCN1CCC(CCNCc2cccnc2SCc2ccccc2)CC1 [WSA 264] | – | > 128 | > 128 | -0.8 | 83900 | –
c1ccc(CSc2ncccc2CNCCC2CCN(C3CCCC3)CC2)cc1 [WSA 265] | – | > 128 | > 128 | -0.7 | 132000 | –
c1ccc(CSc2ncccc2CNCc2ccc(CN3CCCC3)cc2)cc1 [WSA 267] | – | 128 (≈ 317 µM) | 128 (≈ 317 µM) | -0.7 | 91700 | –
CN1CCN(CCNCc2cccnc2SCc2ccccc2)CC1 [WSA 268] | – | > 128 | > 128 | -0.5 | > 180000 | –
CN1CCN(CCNCc2cc(Br)cnc2SCc2ccccc2)CC1 [WSA 271] | 64 (≈ 147 µM) | > 128 | > 128 | -0.7 | 2300 | –
CCN1CCC(CCNCc2cc(Br)cnc2SCc2ccccc2)CC1 [WSA 272] | 32 (≈ 71.4 µM) | 128 (≈ 285 µM) | 128 (≈ 285 µM) | -0.6 | 4460 | –
CN1CCN(CCNCc2cc(-c3ccccc3)cnc2SCc2ccccc2)CC1 [WSA 277] | 16 (≈ 37 µM) | 128 (≈ 296 µM) | 32 (≈ 74 µM) | -0.7 | 2170 | –
COc1ccc(-c2cnc(SCc3ccccc3)c(CNCCN3CCN(C)CC3)c2)cc1 [WSA 278] | 16 (≈ 34.6 µM) | 128 (≈ 277 µM) | 64 (≈ 138 µM) | -0.8 | – | 2070
COc1ccc(-c2cnc(SCc3ccccc3)c(CNCCC3CCN(C4CCCC4)CC3)c2)cc1F [WSA 290] | 4 (≈ 7.49 µM) | 32 (≈ 60 µM) | 32 (≈ 60 µM) | -0.7 | 356 | –
Fc1ccc(-c2cnc(SCc3ccccc3)c(CNCCC3CCN(C4CCCC4)CC3)c2)cc1 [WSA 291] | <2 | 32 (≈ 63.5 µM) | 32 (≈ 63.5 µM) | -1.1 | 1190 | –
Fc1ccc(-c2cnc(SCc3ccccc3)c(CNCCC3CCN(C4CCCC4)CC3)c2)c(F)c1 [WSA 292] | 4 (≈ 7.67 µM) | 32 (≈ 61.3 µM) | 16 (≈ 30.7 µM) | -1.1 | 997 | –
Brc1cnc(SCc2ccccc2)c(CNCc2ccc(CN3CCCC3)cc2)c1 [WSA 293] | 64 (≈ 133 µM) | 64 (≈ 133 µM) | 32 (≈ 66.3 µM) | -1.2 | 3730 | –
